{"source": "patent US20120046273A1", "about": "“COMPOUNDS AND COMPOSITIONS FOR COGNITION-ENHANCEMENT, METHODS OF MAKING, AND METHODS OF TREATING” (MITHRIDION, INC., priority 2009, published 2012)", "key": {"anesthetized normal rats": {"system": "anesthetized normal rats", "assay": "In vivo measurement of salivation", "parameters": "species or system rat", "details": "anesthetized normal rats, dose-dependent between about 0.1 mg/kg and 1 mg/kg", "procedure": "Suitable doses of test compounds or drug substances were administered using standard techniques to Long Evans Hooded rats weighing 225 to 350 grams, or CD-1 mice weighing 30 to 50 grams, which had been anesthetized using 2-3.5%% of isoflurane in oxygen. The animals were placed slightly head-down on an inclined, heated ramp. Rectal temperature was monitored using a thermocouple and the temperature of the heating pad was adjusted manually to maintain normal body temperature. Saliva was collected from the mouth by absorption onto pre-weighed slips of filter paper. The filter paper was changed periodically and the amount of saliva was measured by weighing the filter paper slips"}, "[1]": {"molecular_target": "T1, human muscarinic M1 receptors (Homo sapiens, UniProt P11229)", "T1 construct": "expressed in transfected cells; host or cells: A9L cells (gift from Professor W Messer)", "T1 sequence (P11229 1-460)": "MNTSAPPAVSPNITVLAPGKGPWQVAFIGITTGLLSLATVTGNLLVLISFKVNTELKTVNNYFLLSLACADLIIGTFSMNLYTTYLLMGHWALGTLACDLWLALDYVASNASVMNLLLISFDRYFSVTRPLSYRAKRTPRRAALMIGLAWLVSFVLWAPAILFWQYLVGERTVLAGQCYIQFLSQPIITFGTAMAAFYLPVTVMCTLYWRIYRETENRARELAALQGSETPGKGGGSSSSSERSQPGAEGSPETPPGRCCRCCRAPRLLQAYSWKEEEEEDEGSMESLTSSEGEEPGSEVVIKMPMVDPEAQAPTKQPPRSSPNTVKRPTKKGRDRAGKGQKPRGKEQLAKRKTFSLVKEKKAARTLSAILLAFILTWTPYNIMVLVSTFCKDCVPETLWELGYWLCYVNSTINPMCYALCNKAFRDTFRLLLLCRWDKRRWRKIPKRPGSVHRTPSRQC", "assay": "Inositol phosphate production in huM1/A9L cells (IPOne TR-FRET)", "type": "cell-based", "how_it_was_run": "(§1)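 A9L cells transfected with human M1 or M3 receptors, grown to 90% confluence, then exposed to compounds in growth medium with 10 mM LiCl and extra 10 mM HEPES (pH7.4) for 60 minutes at 37° C. IP measured in lysates by IPOne TR-FRET; efficacy expressed relative to full agonist at 100%.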"}, "[2]": {"molecular_target": "T2, human muscarinic M3 receptors (Homo sapiens, UniProt P20309)", "T2 construct": "expressed in transfected cells; host or cells: A9L cells (gift from Professor W Messer)", "T2 sequence (P20309 whole entry)": "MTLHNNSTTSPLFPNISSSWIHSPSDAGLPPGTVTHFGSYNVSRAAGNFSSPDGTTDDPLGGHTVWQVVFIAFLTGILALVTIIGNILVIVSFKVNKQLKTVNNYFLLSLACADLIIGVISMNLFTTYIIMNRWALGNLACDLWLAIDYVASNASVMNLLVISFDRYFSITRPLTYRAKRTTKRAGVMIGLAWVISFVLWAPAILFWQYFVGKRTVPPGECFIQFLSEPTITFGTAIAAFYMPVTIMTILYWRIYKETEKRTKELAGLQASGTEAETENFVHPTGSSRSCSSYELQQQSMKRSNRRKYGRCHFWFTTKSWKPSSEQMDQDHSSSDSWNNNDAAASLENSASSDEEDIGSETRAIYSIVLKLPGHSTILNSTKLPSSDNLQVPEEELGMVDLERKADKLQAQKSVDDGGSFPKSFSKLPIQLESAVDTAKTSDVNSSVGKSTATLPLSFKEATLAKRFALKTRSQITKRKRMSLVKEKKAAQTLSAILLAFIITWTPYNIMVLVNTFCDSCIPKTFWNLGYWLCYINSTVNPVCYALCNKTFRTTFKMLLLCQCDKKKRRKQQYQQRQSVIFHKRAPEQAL", "assay": "Inositol phosphate production in huM3/A9L cells (IPOne TR-FRET)", "type": "cell-based", "how_it_was_run": "as §1"}, "[3]": {"system": "apomorphine induced climbing", "assay": "Apomorphine induced climbing model of psychosis", "type": "in vivo, CD-I mice", "procedure": "As described in Costall et. al. European Journal of Pharmacology 1978, 50, 39. individual CD-I mice, 1-2 months old, were placed in a cylindrical wire mesh cage (13.2 cm high×13.2 cm diameter) constructed of steel wire 1 mm thick spaced at 1.2 cm^2. Cylinders were placed in a standard OptiMICE mouse cage (29×32×9×29 cm wide and 14 cm high) with adequate wood chip bedding provided. Observations of climbing (defined as 3 or more paws off the ground) were carried out every 5 minutes at a duration of 1 minute for 30 minutes. Animals were injected subcutaneously under isoflurane anesthesia with test compounds, reference compounds, which included clozapine, haloperidol, olanzapine and xanomeline, or PBS as a control. This was followed 5 minutes later by 2 mg/kg apomorphine hydrochloride. All drugs were dissolved in PBS or a mixture of (by volume) 96% PBS and 4% hydroxypropyl-beta-cyclodextrin, and dosed at a rate of 5 ml per kilogram of body weight. Following injections, animals were replaced in the mesh cages and observed for climbing (defined as 3 or more paws off the ground) every 5 minutes for a duration of 1 minute for 60 minutes after dosing."}, "human FMO1 Supersomes": {"molecular_target": "T3, human FMO1 Supersomes (Homo sapiens, UniProt Q01740)", "T3 construct": "purchased BD Biosciences 456241", "T3 sequence (Q01740 1-532)": "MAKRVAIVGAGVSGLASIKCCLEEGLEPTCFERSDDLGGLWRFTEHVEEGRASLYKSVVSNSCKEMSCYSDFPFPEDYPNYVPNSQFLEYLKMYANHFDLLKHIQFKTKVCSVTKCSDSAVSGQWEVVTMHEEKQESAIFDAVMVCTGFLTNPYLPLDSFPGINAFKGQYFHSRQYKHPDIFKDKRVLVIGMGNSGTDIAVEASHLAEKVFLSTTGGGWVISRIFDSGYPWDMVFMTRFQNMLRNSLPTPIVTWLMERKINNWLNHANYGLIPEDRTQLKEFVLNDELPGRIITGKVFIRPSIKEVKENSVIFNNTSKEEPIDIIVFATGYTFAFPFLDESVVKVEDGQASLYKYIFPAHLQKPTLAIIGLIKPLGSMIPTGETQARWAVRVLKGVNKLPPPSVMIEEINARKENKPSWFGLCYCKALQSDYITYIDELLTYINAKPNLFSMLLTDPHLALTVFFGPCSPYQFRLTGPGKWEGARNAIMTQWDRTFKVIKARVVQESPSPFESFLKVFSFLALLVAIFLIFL", "assay": "Metabolism by flavin monoxygenase 1 (FMO1) Supersomes", "type": "in vitro ADME", "procedure": "[…] Aliquots were removed every 10 minutes, and 1% formic acid was added to halt the reaction. Samples were centrifuged, filtered through 0.2 micron spinfilter and the amount of each compound in the supernatants was quantitated using LC/MS/MS."}, "[4]": {"system": "pooled male Sprague-Dawley rat liver microsomes", "assay": "Metabolism by rat liver microsomes", "type": "in vitro ADME", "details": "6 hours incubation", "procedure": "Compounds were incubated with pooled male Sprague-Dawley rat liver microsomes (BD Biosciences, #452501) and an NADP-regenerating system in a phosphate buffer (pH 7.4) for a total of 6 hours. Aliquots were removed every 2 hours, and 1% formic acid was added to halt the reaction. Samples were centrifuged, filtered through 0.2 micron spinfilter and the amount of each compound in the supernatants was quantitated using LC/MS/MS."}, "[5]": {"details": "rat, in vivo, po, 1 hour"}, "[6]": {"details": "percentage of maximal stimulation by carbachol"}}}
{"smiles": "Cc1noc(C2CCCNC2)n1", "note": "(racemic) [Compound 82, 3-Methyl-5-(piperidin-3-yl)-1,2,4-oxadiazole]", "values": [{"measurement": "salivation side effect", "setting": "anesthetized normal rats", "value": "causes salivation"}, {"measurement": "huM1/A9L Smax", "setting": "[1]; [6]", "value": 108, "unit": "%"}, {"measurement": "huM1/A9L ED50 relative to CCh", "setting": "[1]; potency relative to carbachol", "value": "+ (potency 2-10x CCh)"}, {"measurement": "huM3/A9L Smax", "setting": "[2]; [6]", "value": 54, "unit": "%"}, {"measurement": "huM3/A9L ED50 relative to CCh", "setting": "[2]; potency relative to carbachol", "value": "+/− (potency 0.5-2x CCh)"}, {"measurement": "Climbing Mean", "setting": "[3]; 82 (0.1 mg/kg) + APO", "value": 8.9, "unit": "s"}, {"measurement": "Climbing Mean", "setting": "[3]; 82 + APO + N-Methyl Scopolamine (0.3 mg/kg)", "value": 12.3, "unit": "s"}, {"measurement": "Climbing Mean", "setting": "[3]; 82 + APO + scopolamine (0.3 mg/kg)", "value": 47.0, "unit": "s"}, {"measurement": "activity in the apomorphine induced climbing model", "setting": "[3]; mice, sc", "value": "highly active and highly potent"}, {"measurement": "potency in inhibiting climbing compared with haloperidol", "setting": "[3]; mice, sc", "value": "equipotent to haloperidol"}, {"measurement": "extent of metabolism in FMO Supersomes", "setting": "human FMO1 Supersomes", "value": "less than half metabolized"}, {"measurement": "extent of metabolism in rat liver microsomes", "setting": "[4]", "value": "far more stable than compounds 126 and 127"}, {"measurement": "PAMPA (? × 106)", "value": "2.56 ? × 106"}, {"measurement": "rate of crossing the lipid layer in the PAMPA test", "value": "much higher rate"}, {"measurement": "Brain/plasma ratio", "setting": "[5]", "value": 2.38}]}
